# Reference: patent publication US20260240879A1, “TOPICAL PALA THERAPY FOR CANCER” (priority 2023, published 2026)
# Legend:
# [1] = tested on: normal human dermal fibroblasts; test: PALA stimulation of normal human dermal fibroblasts (bactericidal activity against MRSA, antimicrobial peptides); assay type: cell-based; conditions: cells stimulated for 16 h with PALA
# Method: (§1) A. Bactericidal activity of normal human dermal fibroblasts stimulated by PALA treatment. Cells stimulated for 16 h with the indicated concentration of PALA. Conditioned supernatants added to log phase cultures of methicillin-resistant Staphylococcus aureus (MRSA) for 2 h and viable bacterial determined by selective plating. Mean±SD graphed. B. PALA-stimulated production of antimicrobial peptides in normal human dermal fibroblasts. Cells were stimulated as in A. and supernatants assayed by ELISA for human β-defensin 2 (HBD2) and human β-defensin 3 (HBD3). Mean±SD graphed. C. […] Cell lysates from the cells shown in A. were assayed for their ability to catalyze the formation of carbamyl aspartate (CA) in vitro. Percent change in CA levels graphed; mean±SD. […] D. Average number of tumors per mouse at the end of the treatment period (mean±SEM graphed). D. Mice treated for 10 weeks with vehicle (Aquaphor), 1%, 2%, or 5% PALA in Aquaphor. E. Mice treated for 4 weeks with vehicle (AP0536/29/02), 2% (w/w) PALA (AP0536/29/02), or 4% (w/w) PALA (AP0536/29/02).
# [2] = tested on: chemical carcinogen-induced skin cancer; test: Chemical carcinogen (DMBA/TPA)-induced skin cancer model, C57BL/6; assay type: in vivo, C57BL/6 female mice; conditions: 2% (w/v) PALA/Aquaphor, topical, 4 weeks
# Excerpt: Means±SEM, n=5-6/group. Significance determined by 2-way ANOVA
# [3] = molecular target: T1, aspartate transcarbamylase (Homo sapiens, UniProt P27708); test: Aspartate transcarbamylase activity in lysates of PALA-treated fibroblasts; assay type: cell-based; conditions: at doses that induce maximal immune stimulation, 16 h
# T1 construct: endogenous in cells; host or cells: normal human dermal fibroblasts
# Method: as §1
# UVB-induced skin tumors = test: Immunostaining of excised skin tumors (cell cycle markers, antimicrobial peptides, immune cells); assay type: in vivo, SKH1-Elite mice
# [4] = tested on: cytokines and chemokines in treated skin; conditions: mouse, in vivo
# Method: The topical formulations of 2% PALA/50% acetone/10% glycerol, 5% imiquimod (IMQ), 5% 5-FU (5-FU), vehicle (50% acetone/10% glycerol) control, and Aquaphor were applied (~0.05 g/mouse) daily to the dorsal skin of SKH1-Elite female mice (8 weeks of age; n=5/group) for 7 days. […] Mice were monitored daily for weight change, skin appearance, and signs of distress.
# Skin protein lysates were made by homogenizing frozen tissue with a pestle and scissors in RIPA buffer (50 mM Tris, pH8, 150 mM NaCl, 0.5% sodium deoxycholate, 1% NP-40, 0.1% sodium dodecyl sulfate, lx Pierce protease inhibitor cocktail (A32965, ThermoFisher)). Cytokines and chemokines were quantified from 25 μg of lysate using a custom 10-plex U-PLEX panel (K15069L-2; Meso Scale Discovery) that included: GM-CSF, KC/CXCL1, IFNα, IFNβ, IFNγ, IL-10, IL-6, IL-12p70, IL-17A, IL-17C, IL-17F, IP-10/CXCL10, MCP-1/CCL2, RANTES/CCL5, and TNFα. The MESO SECTOR S 600 plate reader (ICOAA-0; Meso Scale Discovery) was used to collect the U-Plex data and data was analyzed using MSD Discovery Workbench 4.0 software.
# [5] = In vitro diffusion test (Franz cells); assay type: in vitro ADME; conditions: PALA 50 mg/g, 37° C., PBS pH 7.4
# Method: All the formulations were prepared by accurately weighing 50 mg PALA in a 4 mL glass vial. The vial was stirred at RT until a clear solution was obtained. Exception for poloxamers P407 20% w/w and P188 at 40% w/w where the PALA solubilisation was performed by stirring the vial in an ice bath (to prevent gelling which occurred at RT).
# In vitro diffusion test (Franz cells, Copley) was performed to mimicking in-vivo conditions of PALA (CMI-34-1) transfer from the formulation through the skin. The test was performed in sink conditions. 100 μL of PALA (CMI-34-1)-loaded hydrogels or bi-gel (containing 5 mg of API) were added to the donor chamber of the Franz cells. 7 mL of PBS pH 7.4 was added to the receptor chamber. The chambers were separated by a Strat-M Membrane (Transdermal Diffusion Test Model, Merck) of 25 mm diameter. The Franz cells were incubated at 37° C. in an appropriate heating block and under stirring at 450 rpm. At selected time points (15, 30, 60, 120, 180, and 1440 minutes), 100 μL of samples was withdrawn from the receptor chamber and analysed by HPLC for drug release. The same volume was replaced with fresh PBS buffer pre-heated at 37° C.
# [6] = mouse, in vivo
# Method: The topical formulations of 2% PALA/50% acetone/10% glycerol, 5% imiquimod (IMQ), 5% 5-FU (5-FU), vehicle (50% acetone/10% glycerol) control, and Aquaphor were applied (~0.05 g/mouse) daily to the dorsal skin of SKH1-Elite female mice (8 weeks of age; n=5/group) for 7 days. […] Mice were monitored daily for weight change, skin appearance, and signs of distress. […] At harvest, spleen weights and colon lengths were measured.
# B16 melanoma = B16 melanoma orthotopic xenograft model; assay type: in vivo,  female mice
# Method: FIG. 17: Topical PALA treatment retards melanoma growth and sensitizes melanoma to anti-checkpoint inhibitor therapy in a B16 melanoma orthotopic xenograft model. C57BU/6 female mice (n=4-5/group) were injected subcutaneously bilaterally with B16 melanoma cells (10^5 cells/flank; 8-10 injections total). Tumor volume was measured by caliper every 2-3 days by personnel blinded to treatment group. Data from palpable tumors are graphed as mean±SEM. […] On day 12 post-injection, mice were treated topically with either vehicle (AP0536/29/02) or 1% (w/w) PALA (AP0536/29/02) daily for 12 days. […] On day 7 post-injection, mice were treated topically with either vehicle (AP0536/29/02) or 2% (w/w) PALA (AP0536/29/02) daily for 5 days. Tumors were harvested on day 14 post-injection and tumor lysates analyzed by immunoblot for PD-L1 protein levels and quantified by image densitometry using ImageJ relative to tubulin levels (loading control). Mean±SEM graphed. C. […] On day 7 post-injection, mice were treated topically with either vehicle (AP0536/29/02) or 2% (w/w) PALA (AP0536/29/02) daily for 5 days. Mice were also treated with either isotype or anti-PD-L1/atezolizumab antibodies (100 μg/mouse) every 48 hours intraperitoneally from day 7 to day 19. Significant differences were determined by 2-way ANOVA with Dunnett's multiple comparison test. ***p<0.001
# [7] = Toxicity markers in UVB-tumor-bearing mice under topical treatment (weight, SAA, colon length, fecal LCN2)
# Method: Serum amyloid A levels were measured in plasma samples using the Mouse SAA ELISA kit (E-90SAA, Immunology Consultants Laboratory, Inc.) according to manufacturer's instructions. Lipocalin-2 (LCN2) was quantified from pre-weighed stool samples homogenized in 0.5 mL PBS using the Mouse Lipocalin-2/NGAL DuoSet ELISA (DY1857) and DuoSet Ancillary Reagent Kit 2 (DY008, R&D Systems).
# T1 sequence (P27708 2-2225 limits assumed): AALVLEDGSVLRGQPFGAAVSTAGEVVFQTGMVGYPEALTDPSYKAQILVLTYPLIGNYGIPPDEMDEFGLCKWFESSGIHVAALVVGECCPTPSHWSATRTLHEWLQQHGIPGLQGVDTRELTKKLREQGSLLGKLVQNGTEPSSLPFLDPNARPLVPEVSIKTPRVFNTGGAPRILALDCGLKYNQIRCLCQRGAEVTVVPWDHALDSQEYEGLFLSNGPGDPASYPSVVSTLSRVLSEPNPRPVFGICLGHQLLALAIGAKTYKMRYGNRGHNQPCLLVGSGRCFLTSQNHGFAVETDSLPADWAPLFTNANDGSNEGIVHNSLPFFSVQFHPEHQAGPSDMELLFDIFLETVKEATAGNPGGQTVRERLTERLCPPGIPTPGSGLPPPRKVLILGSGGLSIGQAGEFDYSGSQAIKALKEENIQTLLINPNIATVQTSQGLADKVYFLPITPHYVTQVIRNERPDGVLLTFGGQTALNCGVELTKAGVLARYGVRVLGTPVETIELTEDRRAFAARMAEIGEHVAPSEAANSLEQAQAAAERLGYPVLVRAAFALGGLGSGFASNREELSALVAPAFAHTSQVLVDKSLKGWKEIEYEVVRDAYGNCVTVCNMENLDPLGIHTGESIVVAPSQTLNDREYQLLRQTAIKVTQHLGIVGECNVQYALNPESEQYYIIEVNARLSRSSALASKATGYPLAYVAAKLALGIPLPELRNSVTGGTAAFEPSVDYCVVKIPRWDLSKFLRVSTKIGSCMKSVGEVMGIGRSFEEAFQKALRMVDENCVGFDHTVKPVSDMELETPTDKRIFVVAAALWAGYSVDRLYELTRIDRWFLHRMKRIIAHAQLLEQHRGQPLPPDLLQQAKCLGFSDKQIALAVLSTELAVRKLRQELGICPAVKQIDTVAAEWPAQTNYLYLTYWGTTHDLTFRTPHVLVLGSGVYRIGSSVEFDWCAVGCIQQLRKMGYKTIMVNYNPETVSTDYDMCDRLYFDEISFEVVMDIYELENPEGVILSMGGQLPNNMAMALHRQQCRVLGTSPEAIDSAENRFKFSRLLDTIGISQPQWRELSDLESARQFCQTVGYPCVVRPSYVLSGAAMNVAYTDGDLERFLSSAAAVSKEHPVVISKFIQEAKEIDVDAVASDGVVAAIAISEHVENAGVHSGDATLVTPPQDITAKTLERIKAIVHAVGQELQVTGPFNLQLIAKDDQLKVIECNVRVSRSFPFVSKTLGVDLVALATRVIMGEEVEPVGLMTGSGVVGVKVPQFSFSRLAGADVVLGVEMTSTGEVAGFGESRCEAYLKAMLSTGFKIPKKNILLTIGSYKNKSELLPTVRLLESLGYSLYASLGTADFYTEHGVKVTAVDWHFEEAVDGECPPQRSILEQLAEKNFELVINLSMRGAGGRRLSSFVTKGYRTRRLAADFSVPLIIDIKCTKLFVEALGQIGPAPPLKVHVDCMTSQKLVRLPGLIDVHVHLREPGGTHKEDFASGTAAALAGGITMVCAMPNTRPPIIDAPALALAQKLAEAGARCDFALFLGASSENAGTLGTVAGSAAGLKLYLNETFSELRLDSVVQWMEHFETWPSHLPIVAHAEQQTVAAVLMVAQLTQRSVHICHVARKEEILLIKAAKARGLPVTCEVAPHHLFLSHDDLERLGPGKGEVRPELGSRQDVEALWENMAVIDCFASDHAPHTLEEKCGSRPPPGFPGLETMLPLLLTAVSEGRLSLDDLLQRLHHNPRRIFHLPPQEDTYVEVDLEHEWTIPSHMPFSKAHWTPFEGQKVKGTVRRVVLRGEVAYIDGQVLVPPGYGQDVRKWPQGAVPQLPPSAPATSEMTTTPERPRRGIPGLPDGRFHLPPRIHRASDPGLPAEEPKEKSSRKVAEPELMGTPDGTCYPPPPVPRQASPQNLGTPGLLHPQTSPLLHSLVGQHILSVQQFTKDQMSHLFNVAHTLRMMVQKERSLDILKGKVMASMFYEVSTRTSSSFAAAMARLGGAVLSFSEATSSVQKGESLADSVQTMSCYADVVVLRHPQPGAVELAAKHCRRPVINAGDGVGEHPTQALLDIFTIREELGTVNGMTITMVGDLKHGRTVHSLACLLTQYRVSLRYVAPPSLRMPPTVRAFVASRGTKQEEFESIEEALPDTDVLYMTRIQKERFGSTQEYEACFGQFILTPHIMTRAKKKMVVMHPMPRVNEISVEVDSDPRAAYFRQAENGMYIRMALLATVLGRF
compound,measurement,setting,value
"O=C(O)CC(NC(=O)CP(=O)(O)O)C(=O)O [PALA, N-phosphonacetyl-L-aspartate]","shape of dose-response curve (bactericidal activity, HBD2, HBD3)",[1],U-shaped dose-response curve
same,change in tumor burden,[2],effective in reducing tumor burden
same,reduction of aspartate transcarbamylase enzyme activity (carbamyl aspartate formation),[3],~ 25%
same,CD8+ cytotoxic T cells in tumors,UVB-induced skin tumors; PALA compared to vehicle-treated controls,elevated numbers
same,F4/80+ macrophages in tumors,UVB-induced skin tumors; PALA relative to vehicle-treated controls,increased numbers
same,LL-37+ cells in tumor samples,UVB-induced skin tumors; PALA vs vehicle,significantly increased
same,numbers of MPO+ cells (neutrophils) in tumors,UVB-induced skin tumors; PALA vs vehicle,the same
same,overall number of CD3+ T cells within tumor tissue,UVB-induced skin tumors; PALA vs vehicle,the same
same,total area of DefB14 staining within tumors,UVB-induced skin tumors; PALA vs vehicle,not different
same,phospho-histone H3+ cells,"UVB-induced skin tumors; excised tumors, 2% PALA, vehicle 3.1%, p=0.0067",4.9%
same,Ki67+ cells per tumor,"UVB-induced skin tumors; excised tumors, 2% PALA, vehicle 10.4%, p=0.005",24.6%
same,cyclin D1+ cells per tumor,"UVB-induced skin tumors; excised tumors, 2% PALA, vehicle 48.9%, p=0.0329",39.4%
same,cyclin B1+ or cyclin A2+ cell populations,"UVB-induced skin tumors; excised tumors, PALA vs vehicle",No differences
same,"GM-CSF, Mean (SEM)",[4],1.0 (0.1)
same,"IL-6, Mean (SEM)",[4],38.8 (8.1)
same,"IL-17A, Mean (SEM)",[4],0.5 (0.09)
same,"IL-17C, Mean (SEM)",[4],0.6 (0.1)
same,"KC, Mean (SEM)",[4],31.1 (2.8)
same,"RANTES, Mean (SEM)",[4],46.4 (9.6)
same,expression of inflammatory cytokine/chemokine panel in treated skin (in words),[4],no changes
same,PALA permeated / released after 24 hours,[5],~ 0.3%
same,SAA levels on day 7,[6],no changes
same,colon length / gross intestinal pathology on day 7,[6],no changes
same,skin histology on day 7,[6],no changes
same,skin irritation apparent (day),[6],no skin irritation
same,spleen weight on day 7,[6],no changes
same,tumor growth (tumor volume),"B16 melanoma; 1% (w/w) PALA (AP0536/29/02), topical daily for 12 days from day 12 post-injection",retards tumor growth
same,PD-L1 protein levels in tumor lysates,"B16 melanoma; 2% (w/w) PALA (AP0536/29/02), topical daily for 5 days",reduces expression of the checkpoint inhibitor PD-L1
same,response to anti-PD-L1 therapy,B16 melanoma; 2% (w/w) PALA daily for 5 days plus anti-PD-L1/atezolizumab 100 μg/mouse i.p. every 48 hours,sensitizes B16 melanoma to anti-PD-L1 therapy
same,skin irritation or weight loss,"[7]; 1, 2 or 5% (w/v) PALA in 50% acetone/10% glycerol, daily topical, 10 weeks",no apparent skin irritation or weight loss
same,circulating levels of serum amyloid A (SAA) at endpoint,"[7]; 1, 2 or 5% (w/v) PALA vs vehicle, daily topical, 10 weeks, trends of higher SAA at 1% and 5%",No significant differences
same,gross colon pathology and colon lengths at harvest,"[7]; 1, 2 or 5% (w/v) PALA, daily topical, 10 weeks",None of the mice had any apparent gross colon pathology or significant differences in colon lengths
same,change in weight from the start of treatment,"[7]; 2% (w/w) PALA (AP0536/29/02) vs 5% 5-FU and 5% IMQ, daily, 4 weeks",maintain weight is better than 5-FU or IMQ treated mice
same,"weight, SAA levels, gross intestinal pathology, LCN2 levels vs vehicle","[7]; 2% PALA, daily topical, 10 weeks",no significant differences
same,fecal lipocalin-2 (LCN2) at endpoint,"[7]; 5% PALA, daily topical, 10 weeks, vehicle 18.1±6.0, p=0.032",186.8±121.1
same,concentration up to which topical PALA is well tolerated,[7]; 10 weeks of daily treatment,up to 5 % (w/v)
